Laboratory results: patent US20140023715A1, “POLYMER CONJUGATES TARGETING CELLS AND METHODS RELATED THERETO” (EMORY UNIVERSITY, priority 2011, published 2014)

Assays:
[1] = test system: MIA PaCa-2 cells; experiment: Cell proliferation, Crystal violet assay, 96 h; type: cell-based; conditions: Homo sapiens
[2] = test system: MIA PaCa-2 orthotopic pancreatic tumor; experiment: Tumor growth inhibition in mice bearing orthotopic MIA PaCa-2 pancreatic cancer; type: in vivo; conditions: i.v., gemcitabine-equivalent 2 mg/kg, five times
Description: (a) Mean tumor weight (blue bar) of non-, gemcitabine-, Gem-IONP, and ATF-Gem-IONPs treated MIA PaCa-2 bearing mice and individual weight distribution in every group (various symbols). Mice were given by i.v. injection of gemcitabine-equivalent dose of 2 mg/kg five times at 3- or 4-day intervals. At the end of the experimental period, tumor tissues were isolated and weighed. Values represent mean±S.D. for 16 mice. *Statistically significant difference vs. control, p<0.0001. **Statistically significant difference vs. gemcitabine and […] groups, p<0.05. (b) Representative tumor images of each group after dissection.
The tumor growth inhibition effect of ATF-Gem-IONPs was studied using female mice bearing orthotopical pancreatic cancer from an uPAR positive human pancreatic cancer cell line, MIA PaCa-2. NPs were administered five times at twice a week and the dose of ATF-Gem-IONPs was calculated based on gemcitabine-equivalence. Tumors were weighed at the end of the experiment, and average tumor weight was compared between groups (FIG. 4A). All of treated groups inhibited tumor growth compared to non-treated control group. […] Tumor weights agreed well tumor volumes results (FIG. 4B).

SMILES: Nc1ccn([C@@H]2O[C@H](CO)[C@@H](O)C2(F)F)c(=O)n1 [gemcitabine]
- viability at 1 µM ([1]; gemcitabine equivalent concentration of 1 μM): 39%
- IC50 ([1]; gemcitabine-equivalent): 0.498 µM
- tumor growth inhibition compared to non-treated control (tumor weight) [2]: 30%
